Data as given in ChEMBL document CHEMBL4190350, “Synthesis, antimicrobial, antiquorum-sensing, antitumor and cytotoxic activities of new series of cyclopenta(hepta)[b]thiophene and fused cyclohepta[b]thiophene analogs” (Eur J Med Chem, 2017).
Values after ≈ are worked out from the molar mass of the structure shown.

Tests used:
Escherichia coli = assay: Antimicrobial activity against Escherichia coli incubated for 24 hrs by disc diffusion assay; assay type: functional
Bacillus cereus = assay: Antimicrobial activity against Bacillus cereus incubated for 24 hrs by disc diffusion assay; assay type: functional
Staphylococcus aureus = assay: Antimicrobial activity against Staphylococcus aureus incubated for 24 hrs by disc diffusion assay; assay type: functional
Candida albicans = assay: Antimicrobial activity against Candida albicans incubated for 48 hrs by disc diffusion assay; assay type: functional
Aspergillus fumigatus [1] = assay: Antimicrobial activity against Aspergillus fumigatus incubated for 48 hrs by disc diffusion assay; assay type: functional
[2] = system: Chromobacterium violaceum; assay: Inhibition of quorum sensing system in Chromobacterium violaceum ATCC 12472 assessed as inhibition of violacein production at 5 mg/mL incubated for 48 hrs
HepG2 = assay: Antitumor activity against human HepG2 cells assessed as inhibition of cell viability incubated for 48 hrs by MTT assay; assay type: functional, cell-based; details: HepG2, 48 h
MCF7 = assay: Antitumor activity against human MCF7 cells assessed as inhibition of cell viability incubated for 48 hrs by MTT assay; assay type: functional, cell-based; details: MCF7, 48 h
HT-29 = assay: Antitumor activity against human HT-29 cells assessed as inhibition of cell viability incubated for 48 hrs by MTT assay; assay type: functional, cell-based; details: HT-29, 48 h
Aspergillus fumigatus [3] = assay: Antimicrobial activity against Aspergillus fumigatus incubated for 48 hrs by serial dilution method; assay type: functional
[4] = Binding affinity to DNA (unknown origin) assessed as reduction in absorption maxima for methyl green/DNA complex incubated for 24 hrs by methyl green/DNA displacement assay
Ehrlich [5] = assay: Antitumor activity against mouse EAC cells implanted in Swiss albino mouse assessed as mean survival time at 0.5 mg for 9 days (reference value: 14.5 day); assay type: functional
Ehrlich [6] = assay: Antitumor activity against mouse EAC cells implanted in Swiss albino mouse assessed as increase in life span at 0.5 mg for 9 days relative to untreated control; assay type: functional
Ehrlich [7] = assay: Antitumor activity against mouse EAC cells implanted in Swiss albino mouse assessed as tumor volume at 0.5 mg for 9 days (reference value: 9.85 ml); assay type: functional
Mus musculus [8] = assay: Toxicity in mouse EAC cells implanted Swiss albino mouse assessed as hemoglobin level at 0.5 mg for 9 days (reference value: 8.15 g/dl); assay type: organism-based; details: in vivo, 216 h
Mus musculus [9] = assay: Toxicity in mouse EAC cells implanted Swiss albino mouse assessed as RBC count at 0.5 mg for 9 days (reference value: 3.69 10^6/mm3); assay type: organism-based; details: in vivo, 216 h
Mus musculus [10] = assay: Toxicity in mouse EAC cells implanted Swiss albino mouse assessed as WBC count at 0.5 mg for 9 days (reference value: 23.96 10^3/mm3); assay type: organism-based; details: in vivo, 216 h

CCOC(=O)C(=NNc1sc2c(c1C(=O)OCC)CCC2)C(=O)OCC
diameter of the inhibition zone (DIZ) (Escherichia coli): 7 mm
diameter of the inhibition zone (DIZ) (Bacillus cereus): 5 mm
diameter of the inhibition zone (DIZ) (Staphylococcus aureus): 9 mm
diameter of the inhibition zone (DIZ) (Candida albicans): <2 mm
diameter of the inhibition zone (DIZ) (Aspergillus fumigatus [1]): <2 mm
INH [2]: < 2 mm
IC50 (HepG2): > 100 µM
IC50 (MCF7): > 100 µM
IC50 (HT-29): > 100 µM

NNC(=O)c1c(NN=C2C(=O)NNC2=O)sc2c1CCCCC2
diameter of the inhibition zone (DIZ) (Escherichia coli): <2 mm
diameter of the inhibition zone (DIZ) (Bacillus cereus): <2 mm
diameter of the inhibition zone (DIZ) (Staphylococcus aureus): <2 mm
diameter of the inhibition zone (DIZ) (Candida albicans): <2 mm
diameter of the inhibition zone (DIZ) (Aspergillus fumigatus [1]): <2 mm
INH [2]: 6 mm
IC50 (HepG2): 32.6 µM
IC50 (MCF7): 28.7 µM
IC50 (HT-29): 49.4 µM

Oc1cc(O)c2c(c1)O[C@H](c1ccc(O)c(O)c1)[C@@H](O)C2
INH [2]: 2 mm

CCOC(=O)c1c(NC(=O)CC#N)sc2c1CCCCC2
diameter of the inhibition zone (DIZ) (Escherichia coli): <2 mm
diameter of the inhibition zone (DIZ) (Bacillus cereus): <2 mm
diameter of the inhibition zone (DIZ) (Staphylococcus aureus): <2 mm
diameter of the inhibition zone (DIZ) (Candida albicans): 14 mm
diameter of the inhibition zone (DIZ) (Aspergillus fumigatus [1]): <2 mm
INH [2]: 2 mm
IC50 (HepG2): > 100 µM
IC50 (MCF7): 60.4 µM
IC50 (HT-29): > 100 µM

CC1=NNC(=O)/C1=N\Nc1sc2c(c1C(=O)NN)CCCCC2
diameter of the inhibition zone (DIZ) (Escherichia coli): <2 mm
diameter of the inhibition zone (DIZ) (Bacillus cereus): <2 mm
diameter of the inhibition zone (DIZ) (Staphylococcus aureus): <2 mm
diameter of the inhibition zone (DIZ) (Candida albicans): <2 mm
diameter of the inhibition zone (DIZ) (Aspergillus fumigatus [1]): <2 mm
INH [2]: 5 mm
IC50 (HepG2): 81.7 µM
IC50 (MCF7): 41.2 µM
IC50 (HT-29): 66.7 µM

NNC(=O)c1c(NN=C2C(=O)NNC2=O)sc2c1CCC2
diameter of the inhibition zone (DIZ) (Escherichia coli): <2 mm
diameter of the inhibition zone (DIZ) (Bacillus cereus): <2 mm
diameter of the inhibition zone (DIZ) (Staphylococcus aureus): <2 mm
diameter of the inhibition zone (DIZ) (Candida albicans): <2 mm
diameter of the inhibition zone (DIZ) (Aspergillus fumigatus [1]): 17 mm
INH [2]: 8 mm
MIC (Aspergillus fumigatus [3]): 1010 µM (≈ 313 µg/mL)

CCOC(=O)/C(C#N)=N/Nc1sc2c(c1C(=O)OCC)CCC2
diameter of the inhibition zone (DIZ) (Escherichia coli): 7 mm
diameter of the inhibition zone (DIZ) (Bacillus cereus): 7 mm
diameter of the inhibition zone (DIZ) (Staphylococcus aureus): 11 mm
diameter of the inhibition zone (DIZ) (Candida albicans): <2 mm
diameter of the inhibition zone (DIZ) (Aspergillus fumigatus [1]): <2 mm
INH [2]: 8 mm
IC50 (HepG2): 58.2 µM
IC50 (MCF7): 45.5 µM
IC50 (HT-29): 72.1 µM

CCOC(=O)c1c(N/N=C2\C(=O)NN=C2C)sc2c1CCCCC2
diameter of the inhibition zone (DIZ) (Escherichia coli): <2 mm
diameter of the inhibition zone (DIZ) (Bacillus cereus): <2 mm
diameter of the inhibition zone (DIZ) (Staphylococcus aureus): <2 mm
diameter of the inhibition zone (DIZ) (Candida albicans): 10 mm
diameter of the inhibition zone (DIZ) (Aspergillus fumigatus [1]): <2 mm
INH [2]: < 2 mm
IC50 (HepG2): 42.3 µM
IC50 (MCF7): 52.4 µM
IC50 (HT-29): 88.1 µM

CCOC(=O)c1c(NC(=O)CC(C)=O)sc2c1CCCCC2
diameter of the inhibition zone (DIZ) (Escherichia coli): <2 mm
diameter of the inhibition zone (DIZ) (Bacillus cereus): <2 mm
diameter of the inhibition zone (DIZ) (Staphylococcus aureus): <2 mm
diameter of the inhibition zone (DIZ) (Candida albicans): <2 mm
diameter of the inhibition zone (DIZ) (Aspergillus fumigatus [1]): <2 mm
INH [2]: < 2 mm
IC50 (HepG2): 89.7 µM
IC50 (MCF7): 62.8 µM
IC50 (HT-29): > 100 µM

CCOC(=O)c1c(N/N=C2\C(=O)NN=C2C)sc2c1CCC2
diameter of the inhibition zone (DIZ) (Escherichia coli): <2 mm
diameter of the inhibition zone (DIZ) (Bacillus cereus): <2 mm
diameter of the inhibition zone (DIZ) (Staphylococcus aureus): 7 mm
diameter of the inhibition zone (DIZ) (Candida albicans): 8 mm
diameter of the inhibition zone (DIZ) (Aspergillus fumigatus [1]): <2 mm
INH [2]: < 2 mm
IC50 (HepG2): 92.4 µM
IC50 (MCF7): 57.2 µM
IC50 (HT-29): 84.5 µM

CCOC(=O)c1c(N/N=C(\C(C)=O)C(=O)c2ccccc2)sc2c1CCCCC2
diameter of the inhibition zone (DIZ) (Escherichia coli): <2 mm
diameter of the inhibition zone (DIZ) (Bacillus cereus): <2 mm
diameter of the inhibition zone (DIZ) (Staphylococcus aureus): <2 mm
diameter of the inhibition zone (DIZ) (Candida albicans): 11 mm
diameter of the inhibition zone (DIZ) (Aspergillus fumigatus [1]): 18 mm
INH [2]: 3 mm
MIC (Aspergillus fumigatus [3]): 758 µM (≈ 313 µg/mL)
IC50 (HepG2): 71.6 µM
IC50 (MCF7): 36.9 µM
IC50 (HT-29): 94.7 µM

NNC(=O)c1c(N/N=C2/C(=O)NN=C2N)sc2c1CCCCC2
diameter of the inhibition zone (DIZ) (Escherichia coli): <2 mm
diameter of the inhibition zone (DIZ) (Bacillus cereus): <2 mm
diameter of the inhibition zone (DIZ) (Staphylococcus aureus): <2 mm
diameter of the inhibition zone (DIZ) (Candida albicans): <2 mm
diameter of the inhibition zone (DIZ) (Aspergillus fumigatus [1]): <2 mm
INH [2]: 9 mm
IC50 (HepG2): 35.4 µM
IC50 (MCF7): 18.3 µM
IC50 (HT-29): 41.2 µM

CCOC(=O)C(=NNc1sc2c(c1C(=O)OCC)CCCCC2)C(=O)OCC
diameter of the inhibition zone (DIZ) (Escherichia coli): <2 mm
diameter of the inhibition zone (DIZ) (Bacillus cereus): <2 mm
diameter of the inhibition zone (DIZ) (Staphylococcus aureus): 5 mm
diameter of the inhibition zone (DIZ) (Candida albicans): <2 mm
diameter of the inhibition zone (DIZ) (Aspergillus fumigatus [1]): <2 mm
INH [2]: < 2 mm
IC50 (HepG2): 76.3 µM
IC50 (MCF7): 54 µM
IC50 (HT-29): 86.8 µM

COc1cccc2c1C(=O)c1c(O)c3c(c(O)c1C2=O)C[C@@](O)(C(=O)CO)C[C@@H]3O[C@H]1C[C@H](N)[C@H](O)[C@H](C)O1 [DOXORUBICIN]
IC50 [4]: 32.4 µM

N#Cc1c(O)c2c3c(sc2[nH]c1=O)CCCCC3
diameter of the inhibition zone (DIZ) (Escherichia coli): 3 mm
diameter of the inhibition zone (DIZ) (Bacillus cereus): 3 mm
diameter of the inhibition zone (DIZ) (Staphylococcus aureus): <2 mm
diameter of the inhibition zone (DIZ) (Candida albicans): <2 mm
diameter of the inhibition zone (DIZ) (Aspergillus fumigatus [1]): 8 mm
INH [2]: < 2 mm
IC50 (HepG2): 22.7 µM
IC50 (MCF7): 19.1 µM
IC50 (HT-29): 27.3 µM

O=c1[nH]cc(F)c(=O)[nH]1 [FLUOROURACIL]
IC50 (HepG2): 6.9 µM
IC50 (MCF7): 5.7 µM
IC50 (HT-29): 4.6 µM
MST (Ehrlich [5]): 49 days
ILS (Ehrlich [6]): 237.9%
Activity (Ehrlich [7]): 1.6 mL
Activity (Mus musculus [8]): 12.96 g/dL
Activity (Mus musculus [9]): 5.21 ×10⁶ /mm3
Activity (Mus musculus [10]): 8.86 ×10³ /mm3

CCOC(=O)c1c(-n2cnnn2)sc2c1CCCCC2
diameter of the inhibition zone (DIZ) (Escherichia coli): 6 mm
diameter of the inhibition zone (DIZ) (Bacillus cereus): 9 mm
diameter of the inhibition zone (DIZ) (Staphylococcus aureus): 3 mm
diameter of the inhibition zone (DIZ) (Candida albicans): <2 mm
diameter of the inhibition zone (DIZ) (Aspergillus fumigatus [1]): <2 mm
INH [2]: < 2 mm
IC50 (HepG2): > 100 µM
IC50 (MCF7): 62.5 µM
IC50 (HT-29): > 100 µM

CC(=O)c1c(O)c2c3c(sc2[nH]c1=O)CCCCC3
diameter of the inhibition zone (DIZ) (Escherichia coli): 12 mm
diameter of the inhibition zone (DIZ) (Bacillus cereus): 9 mm
diameter of the inhibition zone (DIZ) (Staphylococcus aureus): 8 mm
diameter of the inhibition zone (DIZ) (Candida albicans): 9 mm
diameter of the inhibition zone (DIZ) (Aspergillus fumigatus [1]): 24 mm
INH [2]: 5 mm
MIC (Aspergillus fumigatus [3]): 563 µM (≈ 156 µg/mL)
IC50 (HepG2): 54.9 µM
IC50 (MCF7): 24.9 µM
IC50 (HT-29): 47.2 µM
IC50 [4]: 56.3 µM

CCOC(=O)/C(C#N)=N/Nc1sc2c(c1C(=O)OCC)CCCCC2
diameter of the inhibition zone (DIZ) (Escherichia coli): <2 mm
diameter of the inhibition zone (DIZ) (Bacillus cereus): 5 mm
diameter of the inhibition zone (DIZ) (Staphylococcus aureus): 7 mm
diameter of the inhibition zone (DIZ) (Candida albicans): 5 mm
diameter of the inhibition zone (DIZ) (Aspergillus fumigatus [1]): <2 mm
INH [2]: 4 mm
IC50 (HepG2): > 100 µM
IC50 (MCF7): 70.9 µM
IC50 (HT-29): 92.8 µM
